This is an account of results in paper PMC6590088 (Science signaling, 2010).

For one experiment, the system named is BKS SH2 domain. Put plainly: Peptide-binding experiments, BKS SH2 domain. The conditions noted are these: table S2B.
In the next experiment the target is T1, BRDG1 SH2 domain (WT) (Homo sapiens, UniProt Q9ULZ2).
T1 sequence (Q9ULZ2 177-280 limits assumed): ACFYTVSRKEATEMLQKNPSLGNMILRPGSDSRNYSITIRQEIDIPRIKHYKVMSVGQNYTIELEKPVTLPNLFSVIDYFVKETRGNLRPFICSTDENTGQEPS
Kind of experiment: Fluorescence polarization binding assay, wild-type BRDG1 SH2 domain. The conditions noted are these: table S2B.

For experiment [1], the target named is NTAL pTyr136 peptide with Leu+4 replaced by Ala (human). Kind of experiment: fluorescence polarisation. Background: In fluorescence polarisation assays a small probe gives low polarisation when free and higher when bound to something large.
In experiment [2] the target is T2, BRDG1 SH2 domain (Asp167-Ser285) C269A (human, UniProt Q9ULZ2 167-285, C269A).
T2 sequence (looked up): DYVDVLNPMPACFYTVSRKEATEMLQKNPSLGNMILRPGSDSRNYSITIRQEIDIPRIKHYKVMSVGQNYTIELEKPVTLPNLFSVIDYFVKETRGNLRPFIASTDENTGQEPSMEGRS
Kind of experiment: crystal structure.

Non-standard residues stand in square brackets, D forms with d. No end group written: not given here. pY = N[C@@H](Cc1ccc(OP(=O)(O)O)cc1)C(=O)O

NSpY^136ENVLICK [NTAL-pTyr^136]: the “binding to the BKS SH2 domain (in words)” value with BKS SH2 domain is given as “bound strongly”. The “affinity for the BRDG1 SH2 domain (in words)” value on BRDG1 SH2 domain (WT) is on record as “high affinities”.

B1: BRDG1 SH2 domain, wild type (fluorescence polarization) (domain or fragment)
chain: ACFYTVSRKEATEMLQKNPSLGNMILRPGSDSRNYSITIRQEIDIPRIKHYKVMSVGQNYTIELEKPVTLPNLFSVIDYFVKETRGNLRPFICSTDENTGQEPS
In experiment [1], B1 had a fold reduction in affinity relative to the wild-type NTAL peptide of 12 fold.

B2: NTAL phosphopeptide ANSpY136ENVLIAK-NH2 (peptide)
peptide: ANS[pY]ENVLIAK-NH2
modifications: N-terminus assumed
SMILES: CC[C@H](C)[C@H](NC(=O)[C@H](CC(C)C)NC(=O)[C@@H](NC(=O)[C@H](CC(N)=O)NC(=O)[C@H](CCC(=O)O)NC(=O)[C@H](Cc1ccc(OP(=O)(O)O)cc1)NC(=O)[C@H](CO)NC(=O)[C@H](CC(N)=O)NC(=O)[C@H](C)N)C(C)C)C(=O)N[C@@H](C)C(=O)N[C@@H](CCCCN)C(N)=O
Regarding B2, in experiment [2], the binding result is listed as “binds”.
